Data published in US20230265151A1, “GIP/GLP1 CO-AGONIST COMPOUNDS” (priority 2020, published 2023).
Read-outs that look alike come from different tables or passages of the source.

Experiments:
Assay type in all cases: cell-based
[1] = target: T1, hGIPR (Homo sapiens, UniProt P48546); experiment: Functional cAMP formation (HTRF) in HEK-293 clonal cells expressing hGIPR, 0.1% bovine casein, without or with 1.0% human serum albumin; settings: for EC50: geometric mean, read-out: hGIPR EC50, nM (SEM, n); for Emax: read-out: hGIPR Emax, % ± SEM
T1 construct: expressed in transfected cells
T1 sequence (P48546 22-466): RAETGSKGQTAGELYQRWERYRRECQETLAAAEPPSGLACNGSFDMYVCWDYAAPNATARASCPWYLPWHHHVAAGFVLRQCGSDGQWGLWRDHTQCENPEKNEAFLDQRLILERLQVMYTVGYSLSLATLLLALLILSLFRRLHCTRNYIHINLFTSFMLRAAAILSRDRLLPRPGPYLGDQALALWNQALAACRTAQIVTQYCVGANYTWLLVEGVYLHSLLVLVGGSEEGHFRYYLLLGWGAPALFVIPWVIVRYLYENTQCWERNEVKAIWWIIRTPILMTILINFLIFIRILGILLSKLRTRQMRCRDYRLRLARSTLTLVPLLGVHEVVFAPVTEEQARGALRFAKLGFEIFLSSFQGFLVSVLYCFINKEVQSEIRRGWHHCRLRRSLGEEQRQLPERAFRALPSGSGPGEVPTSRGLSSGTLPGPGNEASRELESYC
Outline: (§1)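 Cells were stimulated with peptide for 30 min at 37° C, then lysed in buffer carrying cAMP-d2 and anti-cAMP Eu3+-cryptate for a competitive HTRF read after at least 60 min at room temperature. The 665/620 nm ratio was converted to nM cAMP against a standard curve.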

[2] = target: T2, hGCGR (Homo sapiens, UniProt P47871); experiment: Functional cAMP formation (HTRF) in HEK-293 clonal cells expressing hGCGR, 0.1% bovine casein, without or with 1.0% human serum albumin; settings: geometric mean, read-out: hGCGR EC50, nM (SEM, n)
T2 construct: expressed in transfected cells
Outline: as §1

[3] = target: hGLP-1R (Homo sapiens, UniProt P43220); experiment: Functional cAMP formation (HTRF) in HEK-293 clonal cells expressing hGLP-1R, 0.1% bovine casein, without or with 1.0% human serum albumin; design: expressed in transfected cells; settings: for EC50: geometric mean, read-out: hGLP-1R EC50, nM (SEM, n); for Emax: read-out: hGLP-1R Emax, % ± SEM
Outline: as §1

[4] = 0.1% bovine casein and 1.0% human serum albumin, 37° C.
[5] = HEK293, 0.1% bovine casein and 1.0% human serum albumin, 37° C., percent of maximal response to GIP(1-42)NH2
[6] = HEK293, percent of maximal response to GIP(1-42)NH2, 37° C., 0.1% bovine casein, arithmetic mean
[7] = cAMP, incubated at 37° C., 0.1% bovine casein (no human serum albumin)
[8] = HEK293, 0.1% bovine casein and 1.0% human serum albumin, 37° C., percent of maximal response to GLP-1(7-36)NH2
[9] = HEK293, percent of maximal response to GLP-1(7-36)NH2, 37° C., 0.1% bovine casein, arithmetic mean
[10] = cAMP, 37° C., 0.1% bovine casein (no human serum albumin)

T2 sequence (P47871 26-477): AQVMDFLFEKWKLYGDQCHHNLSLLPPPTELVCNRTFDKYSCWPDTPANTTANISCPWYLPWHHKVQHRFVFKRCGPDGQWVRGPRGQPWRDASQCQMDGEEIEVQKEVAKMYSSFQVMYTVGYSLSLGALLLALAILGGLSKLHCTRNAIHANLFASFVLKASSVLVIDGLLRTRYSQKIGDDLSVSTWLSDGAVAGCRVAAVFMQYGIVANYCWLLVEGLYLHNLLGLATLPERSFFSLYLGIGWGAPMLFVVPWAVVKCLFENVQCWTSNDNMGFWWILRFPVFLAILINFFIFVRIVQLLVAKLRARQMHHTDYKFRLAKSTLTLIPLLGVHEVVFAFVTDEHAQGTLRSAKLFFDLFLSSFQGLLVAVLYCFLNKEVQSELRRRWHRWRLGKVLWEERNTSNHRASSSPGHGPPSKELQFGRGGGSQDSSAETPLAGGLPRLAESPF
Sequence of hGLP-1R (P43220 24-463): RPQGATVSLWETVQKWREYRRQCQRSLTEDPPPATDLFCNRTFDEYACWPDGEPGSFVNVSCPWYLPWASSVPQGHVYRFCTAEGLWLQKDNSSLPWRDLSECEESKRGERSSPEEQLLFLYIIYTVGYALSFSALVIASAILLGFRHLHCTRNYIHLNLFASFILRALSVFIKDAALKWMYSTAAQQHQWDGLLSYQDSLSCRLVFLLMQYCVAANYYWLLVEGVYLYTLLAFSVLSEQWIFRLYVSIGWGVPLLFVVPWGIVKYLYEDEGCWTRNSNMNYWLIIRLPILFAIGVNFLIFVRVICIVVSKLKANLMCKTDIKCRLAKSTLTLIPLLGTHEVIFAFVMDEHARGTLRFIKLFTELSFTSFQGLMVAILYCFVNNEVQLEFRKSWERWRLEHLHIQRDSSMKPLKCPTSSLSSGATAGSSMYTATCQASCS

SMILES | EC50 [1, 4] | Emax [1, 5] | Emax [1, 6] | EC50 [1, 7] | EC50 [2, 4] | EC50 [2, 7] | EC50 [3, 4] | Emax [3, 8] | Emax [3, 9] | EC50 [3, 7] | Emax ([1]; HEK293, cAMP, 37° C., 0.1% bovine casein, percent of maximal response to GIP(1-42)NH2, arithmetic mean) | EC50 [1, 10] | EC50 [2, 10] | EC50 [3, 10]
CC[C@H](C)[C@H](NC(=O)[C@H](CCCN)NC(=O)[C@H](CC(=O)O)NC(=O)[C@H](CC(C)C)NC(=O)[C@](C)(CC(C)C)NC(=O)[C@@H](NC(=O)[C@H](CO)NC(=O)[C@H](Cc1ccncc1)NC(=O)[C@H](CC(=O)O)NC(=O)[C@H](CO)NC(=O)[C@@H](NC(=O)[C@](C)(Cc1ccccc1F)NC(=O)[C@@H](NC(=O)CNC(=O)[C@H](CCC(=O)O)NC(=O)C(C)(C)NC(=O)[C@@H](N)Cc1ccc(O)cc1)[C@@H](C)O)[C@@H](C)O)[C@@H](C)CC)C(=O)N[C@@H](C)C(=O)N[C@@H](CCC(N)=O)C(=O)NC(C)(C)C(=O)N[C@@H](CCCCNC(=O)COCCOCCNC(=O)COCCOCCNC(=O)CCCCCCCCCCCCC(=O)O)C(=O)N[C@@H](Cc1ccccc1)C(=O)N[C@H](C(=O)N[C@H](CCC(=O)O)C(=O)N[C@@](C)(Cc1ccc(O)cc1)C(=O)N[C@@H](CC(C)C)C(=O)N[C@H](C(=O)N[C@@H](CCC(=O)O)C(=O)NCC(=O)NCC(=O)N1CCC[C@H]1C(=O)N[C@@H](CO)C(=O)N[C@@H](CO)C(=O)NCC(=O)N[C@@H](C)C(=O)N1CCC[C@H]1C(=O)N1CCC[C@H]1C(=O)N1CCC[C@H]1C(=O)N[C@@H](CO)C(=O)N[C@@H](CCCCNC(=O)COCCOCCNC(=O)COCCOCCNC(=O)CCCCCCCCCCCCC(=O)O)C(N)=O)[C@@H](C)CC)[C@@H](C)CC [Example 196] | 0.712 nM | 80.8 ± 0.269% | 96 ± 2.1% | 0.0232 nM | > 9950 nM | > 9950 nM | 21.4 nM | 112 ± 4.62% | 96.8 ± 2.59% | 0.356 nM |  |  |  | 
CC[C@H](C)[C@H](NC(=O)[C@H](CC(C)C)NC(=O)[C@](C)(Cc1ccc(O)cc1)NC(=O)[C@@H](CCC(=O)O)NC(=O)[C@@H](NC(=O)[C@](C)(Cc1ccccc1)NC(=O)[C@H](CCC(=O)O)NC(=O)C(C)(C)NC(=O)[C@H](CCC(N)=O)NC(=O)[C@H](C)NC(=O)[C@H](CCCCNC(=O)COCCOCCNC(=O)COCCOCCNC(=O)CC[C@H](NC(=O)CCCCCCCCCCCCC(=O)O)C(=O)O)NC(=O)[C@H](CCCN)NC(=O)[C@H](CC(=O)O)NC(=O)[C@H](CC(C)C)NC(=O)[C@](C)(CC(C)C)NC(=O)[C@@H](NC(=O)[C@H](CO)NC(=O)[C@H](Cc1ccncc1)NC(=O)[C@H](CC(=O)O)NC(=O)[C@H](CO)NC(=O)[C@@H](NC(=O)[C@](C)(Cc1ccccc1)NC(=O)[C@@H](NC(=O)CNC(=O)[C@H](CCC(=O)O)NC(=O)C(C)(C)NC(=O)[C@@H](N)Cc1ccc(O)cc1)[C@@H](C)O)[C@@H](C)O)[C@@H](C)CC)[C@@H](C)CC)C(=O)N[C@@H](CCC(=O)O)C(=O)NCC(=O)NCC(=O)N[C@@H](CCCCNC(=O)COCCOCCNC(=O)COCCOCCNC(=O)CC[C@H](NC(=O)CCCCCCCCCCCCC(=O)O)C(=O)O)C(=O)N[C@@H](CO)C(=O)N[C@@H](CO)C(=O)NCC(=O)N[C@@H](C)C(=O)N1CCC[C@H]1C(=O)N1CCC[C@H]1C(=O)N1CCC[C@H]1C(=O)N[C@@H](CO)C(N)=O [Example 47] |  | 85.6% | 89.8 ± 1.2% | 0.0138 nM | > 9950 nM | > 9950 nM | 1670 nM | 134% | 87.1 ± 14.1% |  |  |  |  | 
CC[C@H](C)[C@H](NC(=O)[C@H](CC(C)C)NC(=O)[C@](C)(Cc1ccc(O)cc1)NC(=O)[C@@H](CCC(=O)O)NC(=O)[C@@H](NC(=O)[C@H](Cc1ccccc1)NC(=O)[C@H](CCCCNC(=O)COCCOCCNC(=O)COCCOCCNC(=O)CCCCCCCCCCCCC(=O)O)NC(=O)C(C)(C)NC(=O)[C@H](CCC(N)=O)NC(=O)[C@H](C)NC(=O)[C@H](CCCCNC(=O)COCCOCCNC(=O)COCCOCCNC(=O)CCCCCCCCCCCCC(=O)O)NC(=O)[C@H](CCCN)NC(=O)[C@H](CC(=O)O)NC(=O)[C@H](CC(C)C)NC(=O)[C@](C)(CC(C)C)NC(=O)[C@@H](NC(=O)[C@H](CO)NC(=O)[C@H](Cc1ccncc1)NC(=O)[C@H](CC(=O)O)NC(=O)[C@H](CO)NC(=O)[C@@H](NC(=O)[C@](C)(Cc1ccccc1F)NC(=O)[C@@H](NC(=O)CNC(=O)[C@H](CCC(=O)O)NC(=O)C(C)(C)NC(=O)[C@@H](N)Cc1ccc(O)cc1)[C@@H](C)O)[C@@H](C)O)[C@@H](C)CC)[C@@H](C)CC)C(=O)N[C@@H](CCC(=O)O)C(=O)NCC(=O)NCC(=O)N1CCC[C@H]1C(=O)N[C@@H](CO)C(=O)N[C@@H](CO)C(=O)NCC(=O)N[C@@H](C)C(=O)N1CCC[C@H]1C(=O)N1CCC[C@H]1C(=O)N1CCC[C@H]1C(=O)N[C@@H](CO)C(N)=O [Example 78] | 0.242 nM | 89.7 ± 2.65% |  | 0.0145 nM | > 9950 nM | > 9950 nM | 4.29 nM |  |  | 0.286 nM |  |  |  | 
CC[C@H](C)[C@H](NC(=O)[C@H](CC(C)C)NC(=O)[C@](C)(Cc1ccc(O)cc1)NC(=O)[C@@H](CCC(=O)O)NC(=O)[C@@H](NC(=O)[C@H](Cc1ccccc1)NC(=O)[C@H](CCCCNC(=O)COCCOCCNC(=O)COCCOCCNC(=O)CCCCCCCCCCCCC(=O)O)NC(=O)C(C)(C)NC(=O)[C@H](CCC(N)=O)NC(=O)[C@H](C)NC(=O)[C@H](CCCCNC(=O)COCCOCCNC(=O)COCCOCCNC(=O)CCCCCCCCCCCCC(=O)O)NC(=O)[C@H](CCCN)NC(=O)[C@H](CC(=O)O)NC(=O)[C@H](CC(C)C)NC(=O)[C@](C)(CC(C)C)NC(=O)[C@@H](NC(=O)[C@H](CO)NC(=O)[C@H](CCc1ccc(O)cc1)NC(=O)[C@H](CC(=O)O)NC(=O)[C@H](CO)NC(=O)[C@@H](NC(=O)[C@](C)(Cc1ccccc1F)NC(=O)[C@@H](NC(=O)CNC(=O)[C@H](CCC(=O)O)NC(=O)C(C)(C)NC(=O)[C@@H](N)Cc1ccc(O)cc1)[C@@H](C)O)[C@@H](C)O)[C@@H](C)CC)[C@@H](C)CC)C(=O)N[C@@H](CCC(=O)O)C(=O)NCC(=O)NCC(=O)N1CCC[C@H]1C(=O)N[C@@H](CO)C(=O)N[C@@H](CO)C(=O)NCC(=O)N[C@@H](C)C(=O)N1CCC[C@H]1C(=O)N1CCC[C@H]1C(=O)N1CCC[C@H]1C(=O)N[C@@H](CO)C(N)=O [Example 272] |  | 81.2% |  |  | > 9950 nM |  |  |  |  |  | 86% | 0.0264 nM | > 9950 nM | 0.388 nM
